Assay results reported in article PMC7663056, “Crystal Structure and Inhibitor Identifications Reveal Targeting Opportunity for the Atypical MAPK Kinase ERK3” (International Journal of Molecular Sciences, 2020).
Where two headings read alike, the source gives them in different places.

Experiments:
ERK3 kinase domain [1] = target: T1, ERK3 kinase domain (Homo sapiens, UniProt Q16659); test: Melting temperature assay (differential scanning fluorimetry, DSF); type: binding; conditions: for ΔTm (melting temperature shift): DSF screen of 1454 kinase inhibitors
T1 construct: The kinase domain of ERK3 (M9-I327) was subcloned into pNIC28–Bsa4; His6 (N, cleaved yes); made in house; host or cells: E. coli (co-expressed with lambda phosphatase)
T1 sequence (Q16659 9-327): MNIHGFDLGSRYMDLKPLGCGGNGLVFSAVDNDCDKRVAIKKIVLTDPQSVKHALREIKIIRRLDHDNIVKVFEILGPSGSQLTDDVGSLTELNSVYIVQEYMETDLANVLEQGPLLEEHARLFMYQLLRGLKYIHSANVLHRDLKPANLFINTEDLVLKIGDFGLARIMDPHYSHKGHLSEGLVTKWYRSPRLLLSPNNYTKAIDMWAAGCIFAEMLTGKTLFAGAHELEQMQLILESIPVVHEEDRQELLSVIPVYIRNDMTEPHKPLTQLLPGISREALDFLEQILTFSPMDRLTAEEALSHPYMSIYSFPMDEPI
Description: The ERK3 kinase domain at 2 µM in 10 mM HEPES pH 7.5 and 500 mM NaCl was mixed with 10 µM inhibitors and SyPRO Orange at 1:1000 dilution. After 10 min incubation at room temperature, the fluorescence signal, which increases upon the temperature-dependent unfolding of ERK3 protein, was measured using Mx3005p real-time PCR machine (Stratagene, San Diego, CA, USA). The ∆Tm shifts were calculated using protocol described previously.

[2] = target: T2, Full length ERK3 (NanoLuc fusion) (Homo sapiens, UniProt Q16659); test: Cell-based NanoBRET assay (tracer displacement) in HEK293T cells; conditions: for IC50: Figure 2F, HEK293T cells, 0.25 µM Tracer K5, 2 h, averaged over two replicates; for remaining activity at 5 µM / remaining activity at 10 µM: HEK-293T, 2 h, Table S3, ratio to DMSO control; for remaining activity at 5 µM: single dose 5 µM, read-out: Norm.BRET 5 µM; for remaining activity at 10 µM: single dose 10 µM, read-out: Norm.BRET 10 µM
T2 construct: Full length ERK3 was cloned into pFC32K (Promega, Madison, WI, USA); expressed in transfected cells; host or cells: HEK293T
T2 sequence (Q16659 whole entry, the tested form may be a part): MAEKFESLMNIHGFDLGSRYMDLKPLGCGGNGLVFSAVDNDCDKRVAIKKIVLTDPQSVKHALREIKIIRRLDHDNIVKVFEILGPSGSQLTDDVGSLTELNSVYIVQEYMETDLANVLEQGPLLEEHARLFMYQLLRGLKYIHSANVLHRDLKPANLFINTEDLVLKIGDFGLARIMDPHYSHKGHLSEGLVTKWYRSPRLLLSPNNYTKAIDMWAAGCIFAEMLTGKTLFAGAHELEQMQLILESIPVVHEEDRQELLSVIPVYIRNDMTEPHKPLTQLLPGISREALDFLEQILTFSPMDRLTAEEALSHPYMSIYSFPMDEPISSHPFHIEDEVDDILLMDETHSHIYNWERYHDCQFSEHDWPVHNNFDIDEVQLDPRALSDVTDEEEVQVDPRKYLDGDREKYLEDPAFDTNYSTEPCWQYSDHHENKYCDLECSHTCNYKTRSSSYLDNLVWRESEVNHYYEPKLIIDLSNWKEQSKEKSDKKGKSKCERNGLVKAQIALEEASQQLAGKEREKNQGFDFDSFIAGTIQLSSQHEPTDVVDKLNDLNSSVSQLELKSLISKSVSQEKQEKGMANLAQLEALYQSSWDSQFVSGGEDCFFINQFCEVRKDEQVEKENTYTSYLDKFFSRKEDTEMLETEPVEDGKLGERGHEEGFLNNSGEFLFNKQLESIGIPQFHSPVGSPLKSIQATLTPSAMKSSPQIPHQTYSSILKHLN
Description: Full length ERK3 was cloned into pFC32K (Promega, Madison, WI, USA) for the expression of an […] NanoLuc fusion, and the plasmid was transfected into HEK293T cells cultured in DMEM (Gibco) supplemented with 10% fetal bovine serum (Gibco) and penicillin/streptamycin (Gibco, Thermo Fisher Scientific, Waltham, MA, USA). NanoBRET assays were performed using protocol published previously. Briefly, after transfection and 20 h incubation, cells were harvested and subsequently resuspended in OptiMEM (Gibco). […] BRET luminescence (450 nm for donor emission and 610 nm for BRET signal) was measured using PHERAstar FSX plate reader (BMG Labtech, Ortenberg, Germany). Milli-BRET units (mBU) were calculated as a ratio between the BRET signal and the overall measured luminescence. A dose–response fitting was applied, and the corresponding IC50 values were calculated in Prism software. For the single concentration screening, the normalized BRET values were calculated from the ratio between the BRET signals of the tested inhibitor and that of the DMSO control.

ERK3 kinase domain [3] = target: T1, ERK3 kinase domain; test: Isothermal titration calorimetry (ITC); type: binding; conditions: for Kd: Figure 2E, 15 °C, averaged over two replicates, read-out: ITC dissociation constant Kd
Description: The integrated heat of titration was calculated and fitted into an independent binding model using NanoAnalyzer software. Thermodynamic parameters, the dissociation constant (Kd), and stoichiometry (n) were an average over duplicates.

[4] = Table S3, DSF assay values shown for comparison, read-out: ΔTm ERK3
[5] = Table S2, 10 µM inhibitors, read-out: ΔTm Initial Screen
[6] = Table S2, average of two repeats ± standard deviation, read-out: ΔTm Follow Up

Row | SMILES | ΔTm at 10 µM (ERK3 kinase domain [1]; [4]) [°C] | remaining activity at 5 µM ([2]; HEK293T) [%] | remaining activity at 10 µM ([2]; HEK293T) [%] | ΔTm at 10 µM (ERK3 kinase domain [1]; [5]) [°C] | ΔTm at 10 µM (ERK3 kinase domain [1]; [6]) [°C] | further results
1 | COc1cc2ncnc(Nc3cccc(Cl)c3)c2cc1OC [AG-1478] | 0.06 | 73.5 ± 1.1 | 41.7 |  |  | 
2 | O=C(Nc1c[nH]nc1-c1nc2ccc(CN3CCOCC3)cc2[nH]1)NC1CC1 [AT9283] |  | 16.1 ± 3.9 | 10.6 ± 1.5 | 3.08 | 3.1 ± 0.1 | ΔTm (melting temperature shift) (ERK3 kinase domain [1]): 3.1–3.8 °C; IC50 [2]: 0.015 ± 0.007 µM; ITC dissociation constant (Kd), in words (ERK3 kinase domain [3]): low nanomolar affinities; Kd (ERK3 kinase domain [3]): 0.08 ± 0.005 µM
3 | CC(C)CCN1c2nc(Nc3cc(F)c(O)c(F)c3)ncc2N(C)C(=O)C1C (stereo not drawn) [BI-D1870] | 0.02 | 80.6 ± 6.7 | 49.4 ± 1.1 |  |  | 
4 | O=C(Nc1cccc(Nc2ncc(Br)c(NCCc3cnc[nH]3)n2)c1)N1CCCC1 [BX-912] | -0.12 | 74.1 ± 1.5 | 53.2 ± 1.7 |  |  | 
5 | O=C(/C=C/c1ccc(O)c(O)c1)c1ccc(O)cc1O [Butein] |  |  |  | 1.15 |  | 
6 | CN1CCN(c2ccc(Nc3nccc(-c4cnn5ncccc45)n3)cc2)CC1 [CAF045] |  |  |  |  |  | ΔTm at 10 µM (ERK3 kinase domain [1]; read-out: ΔTm Follow Up): 1.4 ± 0.5 °C; ΔTm at 10 µM (ERK3 kinase domain [1]; read-out: ΔTm Initial Screen): 1.61 °C
7 | CN1CCN(c2ccc(Nc3nccc(-c4cnn5ncccc45)n3)cc2F)CC1 [CAF052] |  |  |  | 2.81 | 2.5 ± 0.3 | IC50 [2]: 0.02 ± 0.013 µM
8 | CN1CCN(c2ccc(Nc3nccc(-c4cnn5ncccc45)n3)cc2C#N)CC1 [CAF078] |  |  |  | 3.83 | 3.3 ± 0.2 | ΔTm (melting temperature shift) (ERK3 kinase domain [1]): 3.1–3.8 °C; IC50 [2]: 0.009 ± 0.001 µM; ITC dissociation constant (Kd), in words (ERK3 kinase domain [3]): low nanomolar affinities; Kd (ERK3 kinase domain [3]): 0.044 ± 0.026 µM
9 | O=C(Nc1ccc(Nc2nccc(Nc3cc(C4CCCC4)[nH]n3)n2)cc1)Nc1cccc(C(F)(F)F)c1 [CD532] |  |  |  | 1.7 | 1 ± 0.1 | 
10 | O=C(NC(NC(=S)Nc1ccc(F)c([N+](=O)[O-])c1)C(Cl)(Cl)Cl)C(c1ccccc1)c1ccccc1 (stereo not drawn) [CGK733] |  |  |  | 1.17 |  | 
11 | Cc1cc(Nc2cc(N3CCN(C)CC3)nc(/C=C/c3ccccc3)n2)n[nH]1 [ENMD-2076] | -0.15 | 90.8 ± 3 | 58.5 ± 0.4 |  |  | 
12 | CCn1cc(-c2ccnc3[nH]c(-c4cccc(CN(C)C)c4)cc23)c(-c2ccc(NC(=O)N(C)C)cc2)n1 [GSK1070916] |  | 56.8 ± 2.8 | 31.3 ± 0.1 | 1.45 | 0.1 ± 0.3 | IC50, cell-based NanoBRET assay ([2]; HEK293T): did not produce a BRET signal
13 | O=C1Nc2ccc(I)cc2C1=Cc1cc(Br)c(O)c(Br)c1 [GW5074] |  |  |  |  |  | ΔTm at 10 µM (ERK3 kinase domain [1]; read-out: ΔTm Initial Screen): 1.36 °C
14 | COc1cccc(-n2ncc3c(N/N=C/c4ccc(C(=O)NCCN(C)C)cc4)ncnc32)c1 [GW784307A] |  |  |  |  |  | ΔTm at 10 µM (ERK3 kinase domain [1]; read-out: ΔTm Initial Screen): 1.3 °C
15 | O=C(Nc1cc(C(F)(F)F)cc(C(F)(F)F)c1)c1cc(Cl)ccc1O [IMD0354] |  |  |  |  |  | ΔTm at 10 µM (ERK3 kinase domain [1]; read-out: ΔTm Initial Screen): 1.21 °C
16 | Nc1nc(Nc2ccc(S(N)(=O)=O)cc2)nn1C(=O)c1c(F)cccc1F [JNJ-7706621] | 0.2 ± 0.1 | 23.1 ± 0.1 | 17 ± 0.1 |  |  | 
17 | CNC(=O)c1nn(C)c2c1C(C)(C)Cc1cnc(Nc3ccc(N4CCN(C)CC4)cc3)nc1-2 [Milciclib] |  | 40.9 | 26.8 ± 0.5 | 2.11 | 2.5 ± 0.3 | IC50 [2]: 0.027 ± 0.005 µM; Kd (ERK3 kinase domain [3]): 0.245 ± 0.06 µM
18 | CN(c1ncccc1CNc1nc(Nc2ccc3c(c2)CC(=O)N3)ncc1C(F)(F)F)S(C)(=O)=O [PF-00562271] | -0.09 | 76.8 ± 9.4 | 49.5 ± 4.6 |  |  | 
19 | NC(=O)c1cnc(N[C@@H]2CCCC[C@@H]2N)nc1Nc1cccc(-n2nccn2)c1 [PRT062607] | 0.51 | 88.2 ± 10.3 | 60.1 ± 16.9 |  |  | 
20 | CC(C)(C)c1cc(NC(=O)Nc2ccc(-c3cn4c(n3)sc3cc(OCCN5CCOCC5)ccc34)cc2)no1 [Quizartinib] |  |  |  |  |  | ΔTm Initial Screen (ERK3 kinase domain [1]; Table S2, 10 µM inhibitors): 1.12 °C
21 | Fc1ccc(-c2ncn(C3CCNCC3)c2-c2ccnc(Oc3ccc4c(c3)OCO4)n2)cc1 [SB-250715] |  |  |  | 1.1 |  | 
22 | CNC(=O)c1cc(Oc2ccc(NC(=O)Nc3ccc(Cl)c(C(F)(F)F)c3)cc2)ccn1 [Sorafenib] |  |  |  |  |  | ΔTm at 10 µM (ERK3 kinase domain [1]; read-out: ΔTm Follow Up): 0 °C; ΔTm at 10 µM (ERK3 kinase domain [1]; read-out: ΔTm Initial Screen): 1.2 °C
23 | Cc1cnc(Nc2ccc(N3CCN(C)CC3)cc2)nc1Nc1cccc(S(=O)(=O)NC(C)(C)C)c1 [TG101209] | 0.3 ± 0.2 | 46.6 ± 2.2 | 36.9 ± 0.7 |  |  | IC50 [2]: 1.54 ± 0.214 µM
24 | COc1ccc(Cl)c(Nc2nc3ccccc3nc2NS(=O)(=O)c2cccc(NC(=O)C(C)(C)N)c2)c1 [XL147] |  |  |  | 1.96 | 1.2 ± 0.6 | 

Second part, led by results:

Row | ΔTm at 10 µM (ERK3 kinase domain [1]; [4]) [°C] | remaining activity at 5 µM ([2]; HEK293T) [%] | remaining activity at 10 µM ([2]; HEK293T) [%] | ΔTm at 10 µM (ERK3 kinase domain [1]; [5]) [°C] | ΔTm at 10 µM (ERK3 kinase domain [1]; [6]) [°C] | SMILES | further results
25 | 0.4 ± 0.3 | 40 ± 1.6 | 38.8 ± 3.1 |  |  | CCN1CCN(Cc2ccc(-c3cc4c(N[C@H](C)c5ccccc5)ncnc4[nH]3)cc2)CC1 [AEE788] | IC50 [2]: 0.145 ± 0.045 µM
26 | -0.17 | 93.3 ± 4 | 61.7 ± 2.2 |  |  | Cc1ncc(-c2ccnc(Nc3ccc(S(C)(=O)=O)cc3)n2)n1C(C)C [AZD5438] | 
27 |  |  |  | 1.04 |  | C=CC(=O)Nc1cccc(Nc2nc(Nc3ccc(Oc4ccnc(C(=O)NC)c4)cc3)ncc2F)c1 [CNX-774] | 
28 | 0.26 | 64.9 ± 3.8 | 52.9 ± 2.8 |  |  | Cc1nc(N)sc1-c1ccnc(Nc2ccc(N3CCOCC3)cc2)n1 [CYC116] | 
29 |  |  |  | 2.05 | 3.1 ± 0.3 | C=CC(=O)Nc1cc2c(Nc3ccc(F)c(Cl)c3)ncnc2cc1OCCCN1CCOCC1 [Canertinib] | 
30 |  |  |  | 1.12 | -0.3 ± 0.3 | CCCN1CCC(c2ccc(Nc3nc(Nc4cc(F)ccc4C(N)=O)c4cc[nH]c4n3)c(OC)c2)CC1 [GSK1326255A] | 
31 |  |  |  | 1.04 | 1.1 ± 0.2 | NS(=O)(=O)c1ccc(N/N=C2\C(=O)Nc3ccc4ncccc4c32)cc1 [GW305178X] | 
32 |  |  |  | 1.04 | 0.8 ± 0.4 | CS(=O)(=O)CCNCc1ccc(-c2ccc3ncnc(Nc4ccc(OCc5ccccc5)c(Br)c4)c3c2)o1 [GW580496A] | 
33 |  |  |  | 2.55 | 2.5 ± 0.2 | COc1cccc(-c2c[nH]c3c(N/N=C/c4ccncc4)ncnc23)c1 [GW814408X] | 
34 |  | 28.8 ± 2.4 | 19.6 ± 5.7 | 1.67 | 1.7 ± 0.4 | O=C(c1ccc(Nc2nccc(-c3cc4ccccc4s3)n2)cc1)N1CCC(N2CCCC2)CC1 [IKK-16] | IC50 [2]: 0.116 ± 0.026 µM; Kd (ERK3 kinase domain [3]): 1.85 ± 0.915 µM
35 | -3.92 ± 0.3 | 67.8 ± 10.6 | 45.5 ± 4.2 |  |  | Oc1ccc2ccccc2c1SSc1c(O)ccc2ccccc12 [IPA-3] | 
36 | 0.15 | 71.7 ± 7.8 | 49.8 ± 4.1 |  |  | CC(C)(C)c1cnc(CSc2cnc(NC(=O)C3CCNCC3)s2)o1 [SNS-032] | 
37 | -0.1 ± 0.2 | 50.8 ± 4.5 | 36.2 ± 6.3 |  |  | COc1cc2ncnc(Nc3ccc(O)c(Br)c3)c2cc1OC [WHI-P154] | IC50 [2]: 0.54 ± 0.129 µM
